± gives the expanded uncertainty stated by the source.
Experiments:
[1] = 92 kPa, Liquid; for mass density: Vibrating tube method
[2] = xn = mol fraction of the nth substance listed; conditions: 92 kPa, Liquid, x2 = 0; for mass density: Vibrating tube method

| Compound | viscosity ([1]; 313.15 K) | mass density ([1]; 313.15 K) | viscosity ([1]; 323.15 K) | mass density ([1]; 323.15 K) | viscosity ([1]; 333.15 K) | mass density ([1]; 333.15 K) | viscosity ([1]; 343.15 K) | mass density ([1]; 343.15 K) | viscosity ([1]; 298.15 K) | viscosity ([1]; 303.15 K) | viscosity ([2]; 298.15 K) | viscosity ([2]; 303.15 K) | viscosity ([2]; 313.15 K) | mass density ([2]; 323.15 K) | viscosity ([2]; 323.15 K) | mass density ([2]; 333.15 K) | viscosity ([2]; 333.15 K) | mass density ([2]; 343.15 K) | viscosity ([2]; 343.15 K) |
| --- | --- | --- | --- | --- | --- | --- | --- | --- | --- | --- | --- | --- | --- | --- | --- | --- | --- | --- | --- |
| CC(C)(N)CO [2-amino-2-methylpropan-1-ol] | 47.8 ± 3.2 mPa·s | 919.65 ± 1.4 kg/m3 | 25.1 ± 1.7 mPa·s | 911.24 ± 1.4 kg/m3 | 14.4 ± 1 mPa·s | 902.87 ± 1.4 kg/m3 | 8.91 ± 0.69 mPa·s | 894.28 ± 1.4 kg/m3 | – | – | – | – | – | – | – | – | – | – | – |
| O [water] | 0.653 ± 0.069 mPa·s | – | 0.547 ± 0.06 mPa·s | 988.04 ± 0.06 kg/m3 | 0.466 ± 0.053 mPa·s | 983.12 ± 0.06 kg/m3 | 0.405 ± 0.047 mPa·s | 977.77 ± 0.06 kg/m3 | 0.89 ± 0.089 mPa·s | 0.805 ± 0.082 mPa·s | – | – | – | – | – | – | – | – | – |
| O [water] + CC(C)(N)CO | – | – | – | – | – | – | – | – | – | – | 0.89 ± 0.089 mPa·s | 0.805 ± 0.082 mPa·s | 0.653 ± 0.069 mPa·s | 988.04 ± 0.06 kg/m3 | 0.547 ± 0.06 mPa·s | 983.12 ± 0.06 kg/m3 | 0.466 ± 0.053 mPa·s | 977.77 ± 0.06 kg/m3 | 0.405 ± 0.047 mPa·s |
